Molecular target: T1, 5-lipoxygenase (5-LO) (Homo sapiens, UniProt P09917)
T1 construct: endogenous in cells; host or cells: human polymorphonuclear leukocytes from donor blood
T1 sequence (P09917 1-674): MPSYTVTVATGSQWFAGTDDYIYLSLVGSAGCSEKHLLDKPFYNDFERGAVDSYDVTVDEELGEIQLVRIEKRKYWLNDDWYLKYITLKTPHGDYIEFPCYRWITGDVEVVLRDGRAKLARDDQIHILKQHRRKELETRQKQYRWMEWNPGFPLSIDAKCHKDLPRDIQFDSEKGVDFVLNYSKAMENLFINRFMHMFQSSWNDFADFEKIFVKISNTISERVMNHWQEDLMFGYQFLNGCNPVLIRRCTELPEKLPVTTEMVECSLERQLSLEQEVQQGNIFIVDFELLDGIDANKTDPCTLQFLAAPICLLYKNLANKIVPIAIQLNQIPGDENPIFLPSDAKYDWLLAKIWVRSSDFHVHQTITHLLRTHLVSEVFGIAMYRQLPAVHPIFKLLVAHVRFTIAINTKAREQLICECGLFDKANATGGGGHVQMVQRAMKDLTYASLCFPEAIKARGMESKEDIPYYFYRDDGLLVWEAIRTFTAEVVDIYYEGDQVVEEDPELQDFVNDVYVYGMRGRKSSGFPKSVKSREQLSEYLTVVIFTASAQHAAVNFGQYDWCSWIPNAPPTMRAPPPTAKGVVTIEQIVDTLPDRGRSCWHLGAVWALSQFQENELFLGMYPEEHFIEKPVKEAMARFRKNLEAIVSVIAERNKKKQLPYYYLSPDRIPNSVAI
Experiment: 5-LO inhibiting activity in human polymorphonuclear leukocytes ([14C]-arachidonic acid, A23187; HPLC of eicosanoids)
Assay type: cell-based
Conditions: 25 μM concentration; read-out: 5-LO inhibitory activity, approximate inhibition percentage
Method: In order to show the 5-LO inhibiting activity of the products of the present invention, a specific test based on human polymorphonuclear leukocytes is chosen.
5-LO Inhibiting Activity in Polymorphonuclear Leukocytes
Blood was obtained from donors which had not received medication during the ten days previous to the extraction. The blood was treated with an anticoagulant (ACD-A) and was centrifuged at 200 g during 12 min at room temperature, separating the supernatant. A solution of Dextran T-500 in physiological serum was added to the pellet, in order to obtain a final concentration of 0.6% w/v, and was allowed to sediment during 40 min. The supernatant was centrifuged at 180 g during 10 min at room temperature. The pellet was resuspended in 5 ml of Hank's buffer, pH 7.4. After the addition of 3 ml of Lymphoprep, the suspension was centrifuged at 450 g during 30 min, and the layers of supernatant were discarded. The next step was the lysis of the erythrocytes present by adding 2 ml of a saline solution. The resulting volume was adjusted to 10 ml with Hank's buffer, pH 7.4. The solution was centrifuged during 10 min at 180 g; the supernatant was discarded and the resulting pellet was resuspended in 1-2 ml of Hank's buffer, pH 7.4. The cellular density was determined using a haemocytometer using the procedure of microcollection Unopette to determine the levels of platelet contamination. Cellular density was adjusted to 2×10^7 cells/ml with Hank's buffer, pH 7.4 and CaCl2 was added to a final concentration of 1.5 mM.
Aliquots (0.5 ml) of the polymorphonuclear leukocytes suspensions, obtained as described in part (a), were incubated during 5 min at 37° C. in the absence (control) and in the presence of three different concentrations of each drug. Afterwards an ethanol solution of [^14 C]-arachidonic acid and A23187 ionophore was added to obtain a final concentration of 10 and 5 μM, respectively. After 5 min of incubation the reaction was stopped by addition of 0.5 ml of ice-cold ethanol. Samples were centrifuged during 2 min at 1500 g, and the supernatants were kept at -80° C. until analyzed. Controls were carried out using the polymorphonuclear leukocyte suspensions aliquots in the presence of the solvent (DMSO) only.
The analysis of the products from the transformation of arachidonic acid through the action of the lipoxygenase (these products being the eicosanoids) was carried out using high pressure liquid chromatography (HPLC), in a reverse phase column (Ultrasphere-ODS, Beckman), injecting 500 μl of the supernatants obtained from the incubations. Elution was carried out using an isocratic mix of mathanol:water:triethylamine:trifluoroacetic acid, 75:25:0.05:0.10, with a flux of 1 ml/min. Detection was carried out with a radioactivity detector with a liquid scintillation cell on-line coupled with the column.

Row | inhibition at 25 µM [%] | SMILES
1 | 73 | Oc1c(Cl)cc(I)cc1I [Bobel-10, 2-chloro-4,6-diiodophenol]
2 | 80 | Oc1c(I)cc(Cl)cc1I [Bobel-18, 4-chloro-2,6-diiodophenol]
3 | 87 | CC(C)(C)c1cc(I)cc(I)c1O [Bobel-9, 2-tert-butyl-4,6-diiodofenol]
4 | 100 | Oc1c(I)cc(I)c(F)c1I [Bobel-29, 3-fluoro-2,4,6-triiodophenol]
5 | 97 | Oc1c(I)cc(I)cc1C(F)(F)F [Bobel-12, 2-trifluoromethyl-4,6-diiodophenol]
6 | 85 | CC(C)c1cc(I)c(O)c(I)c1 [Bobel-14, 4-isopropyl-2,6-diiodophenol]
7 | 100 | Oc1c(I)cc(C(F)(F)F)cc1I [Bobel-20, 4-trifluoromethyl-2,6-diiodophenol]
8 | 74 | CCc1cc(I)cc(I)c1O [Bobel-7, 2-ethyl-4,6-diiodophenol]
9 | 85 | CC(C)(C)c1cc(I)c(O)c(I)c1 [Bobel-15, 4-tert-butyl-2,6-diiodophenol]
10 | 94 | CCc1c(I)cc(I)c(O)c1I [Bobel-26, 3-ethyl-2,4,6-triiodophenol]
11 | 97 | Cc1c(I)cc(I)c(O)c1I [Bobel-25, 3-methyl-2,4-6-triiodophenol]
12 | 88 | Oc1c(Br)cc(I)cc1I [Bobel-11, 2-bromo-4,6-diiodophenol]
13 | 95 | CC(C)c1cc(I)cc(I)c1O [Bobel-8, 2-isopropyl-4,6-diiodophenol]

Second part, the molecule before the results:

Row | SMILES | inhibition at 25 µM [%]
14 | CC(C)(C)c1cc(I)ccc1O [Bobel-3, 2-tert-butyl-4-iodophenol] | 96
15 | CC(C)(C)c1ccc(O)c(I)c1 [Bobel-2, 4-tert-butyl-2-iodophenol] | 80
16 | Oc1c(I)cc(I)c(Cl)c1I [Bobel-30, 3-chloro-2,4,6-triiodophenol] | 90
17 | CC(C)c1cc(I)cc(C(C)C)c1O [Bobel-4, 2,6-diisopropyl-4-iodophenol] | 94
18 | Oc1c(I)cc(-c2ccccc2)cc1I [Bobel-16, 4-phenyl-2,6-diiodophenol] | 97

Same assay, conditions: LTB4, 6-trans-LTB4, 5-HETE, 20-OH-LTB4; FIGS. 3 and 4

Row | SMILES | concentration of biosynthesis products versus concentration of the drug
19 | CC(C(=O)O)c1ccc2oc(-c3ccc(Cl)cc3)nc2c1 (centres unmarked) [benoxaprofen, reference compound] | decreased in approximately linear with the concentration of the drug used
20 | CC(=O)N1CCN(c2ccc(OCC3COC(Cn4ccnc4)(c4ccc(Cl)cc4Cl)O3)cc2)CC1 (centres unmarked) [ketaconozale, ketoconazole, reference compound] | decreased in approximately linear with the concentration of the drug used

Same assay, conditions: human polymorphonuclear leukocytes; AA 10 μM, A23187 5 μM; average of five different peaks; read-out: IC50 (concentration of the drug which inhibits 50% of the AA converted by 5-LO)

Row | SMILES | IC50 [µM]
21 | CC(C(=O)O)c1ccc2oc(-c3ccc(Cl)cc3)nc2c1 (centres unmarked) [benoxaprofen, reference compound] | 92
22 | CC(=O)N1CCN(c2ccc(OCC3COC(Cn4ccnc4)(c4ccc(Cl)cc4Cl)O3)cc2)CC1 (centres unmarked) [ketaconozale, ketoconazole, reference compound] | 102

Same assay, conditions: in words

Row | SMILES | 5-LO inhibiting activity of products of monoiodination of phenol (control tests)
23 | Oc1ccc(I)cc1 [Bobel 4-iodophenol, 4-iodophenol, reference compound] | negligible activity
24 | Oc1cccc(I)c1 [Bobel 3-iodophenol, 3-iodophenol, reference compound] | negligible activity
25 | Oc1ccccc1I [Bobel 2-iodophenol, 2-iodophenol, reference compound] | negligible activity

System: 5-LO
Experiment: not given
Conditions: background statement; cited from earlier work

Row | SMILES | 5-LO inhibition
26 | CC(Cc1ccc(O)c(O)c1)C(C)Cc1ccc(O)c(O)c1 (centres unmarked) [NDGA, nordihydroguayaretic acid] | potent 5-LO inhibitor

System: dioxygenases
Experiment: not given
Conditions: background statement; cited from earlier work

Row | SMILES | inhibition of dioxygenases
27 | CC(Cc1ccc(O)c(O)c1)C(C)Cc1ccc(O)c(O)c1 (centres unmarked) [NDGA, nordihydroguayaretic acid] | inhibitor of all dioxygenases

System: not given
Experiment: not given
Conditions: background statement; cited from earlier work

Row | SMILES | toxicity
28 | CC(C(=O)O)c1ccc2oc(-c3ccc(Cl)cc3)nc2c1 (centres unmarked) [benoxaprofen, reference compound] | much too toxic
29 | COc1c(OC)c(OC(C)=O)c2cc(Cl)ccc2c1OC(C)=O [lonapalene] | much too toxic

Source: patent US5985937A, “Use of 2,4-distributed phenol derivatives as 5-lipoxygenase inhibitors” (priority 1994, dated 1999)
